Measured values reported in a compilation of properties of binary mixtures.

Assay: xn = mol fraction of the nth substance listed
Settings: 101 kPa

CCCC[n+]1ccc(C)cc1.F[B-](F)(F)F + CO
viscosity [mPa·s]
Settings	298.15 K	313.15 K	323.15 K
x1 = 0.0151	0.621	0.507	–
x2 = 0	–	81	50.2
x2 = 0.4287	–	–	9.2
x2 = 0.5246	–	7.58	5.92
x2 = 0.5678	9.3	6.31	4.95
x2 = 0.718	4.19	–	2.5
x2 = 0.8313	2.02	1.54	–
x2 = 0.8803	1.46	–	–
x2 = 0.9154	1.11	0.877	0.763
x2 = 0.9452	0.868	0.696	0.611
x2 = 0.9671	–	0.586	0.519
x2 = 0.9775	0.669	0.544	0.476

CO + CCCC[n+]1ccc(C)cc1.F[B-](F)(F)F
x1 = 1
Settings	viscosity [mPa·s]
313.15 K	0.436
323.15 K	0.383
